Measurements: ChEMBL document CHEMBL5625270, “Targeting ATP-binding site of WRN Helicase: Identification of novel inhibitors through pocket analysis and Molecular Dynamics-Enhanced virtual screening” (Bioorg Med Chem Lett, 2024)
Calls of active or inactive are those of the source. The calls are words filed in the database; no cut-off is given here.

Key:
[1] = target: T1, Bifunctional 3'-5' exonuclease/ATP-dependent helicase WRN (Homo sapiens, UniProt Q14191); experiment: Inhibition of WRN (unknown origin)
[2] = target: T1, Bifunctional 3'-5' exonuclease/ATP-dependent helicase WRN; experiment: Inhibition of WRN (unknown origin) ATPase activity
[3] = target: RecQ-like DNA helicase BLM (Homo sapiens, UniProt P54132); experiment: Inhibition of BLM (unknown origin) ATPase activity
[4] = target: T2, Eukaryotic initiation factor 4A-I (Homo sapiens, UniProt P60842); experiment: Inhibition of eIF4A (unknown origin) ATPase activity
Homo sapiens [5] = organism: Homo sapiens; experiment: Inhibition of HSP90 (unknown origin) ATPase activity within 200 uM
[6] = target: T2, Eukaryotic initiation factor 4A-I; experiment: Inhibition of eIF4A (unknown origin) ATPase activity at <200 uM
[7] = target: T1, Bifunctional 3'-5' exonuclease/ATP-dependent helicase WRN; experiment: Inhibition of recombinant human WRN unwinding activity by immunosorbent-based helicase unwinding assay
[8] = Inhibition of HSP90 (unknown origin) ATPase activity; parameters: species or system Homo sapiens
Homo sapiens [9] = organism: Homo sapiens; experiment: Inhibition of HSP90 (unknown origin) ATPase activity at <200 uM
[10] = target: T2, Eukaryotic initiation factor 4A-I; experiment: Inhibition of eIF4A (unknown origin) ATPase activity within 200 uM
[11] = system: Microsatellite instability cancer cell; experiment: Cytotoxicity against Microsatellite instability cancer cell (unknown origin); assay type: functional, cell-based

T2 sequence (P60842 whole entry): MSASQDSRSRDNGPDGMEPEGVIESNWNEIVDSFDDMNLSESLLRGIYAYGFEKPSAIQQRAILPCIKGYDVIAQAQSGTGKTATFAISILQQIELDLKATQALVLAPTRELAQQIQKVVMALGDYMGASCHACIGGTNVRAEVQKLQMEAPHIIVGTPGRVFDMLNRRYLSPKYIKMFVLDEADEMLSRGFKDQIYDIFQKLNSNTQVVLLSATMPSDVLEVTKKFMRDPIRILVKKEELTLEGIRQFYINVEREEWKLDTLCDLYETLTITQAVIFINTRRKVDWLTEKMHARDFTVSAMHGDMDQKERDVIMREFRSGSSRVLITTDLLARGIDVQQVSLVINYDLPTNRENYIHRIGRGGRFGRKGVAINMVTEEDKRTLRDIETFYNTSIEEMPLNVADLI
T1 sequence (Q14191 whole entry): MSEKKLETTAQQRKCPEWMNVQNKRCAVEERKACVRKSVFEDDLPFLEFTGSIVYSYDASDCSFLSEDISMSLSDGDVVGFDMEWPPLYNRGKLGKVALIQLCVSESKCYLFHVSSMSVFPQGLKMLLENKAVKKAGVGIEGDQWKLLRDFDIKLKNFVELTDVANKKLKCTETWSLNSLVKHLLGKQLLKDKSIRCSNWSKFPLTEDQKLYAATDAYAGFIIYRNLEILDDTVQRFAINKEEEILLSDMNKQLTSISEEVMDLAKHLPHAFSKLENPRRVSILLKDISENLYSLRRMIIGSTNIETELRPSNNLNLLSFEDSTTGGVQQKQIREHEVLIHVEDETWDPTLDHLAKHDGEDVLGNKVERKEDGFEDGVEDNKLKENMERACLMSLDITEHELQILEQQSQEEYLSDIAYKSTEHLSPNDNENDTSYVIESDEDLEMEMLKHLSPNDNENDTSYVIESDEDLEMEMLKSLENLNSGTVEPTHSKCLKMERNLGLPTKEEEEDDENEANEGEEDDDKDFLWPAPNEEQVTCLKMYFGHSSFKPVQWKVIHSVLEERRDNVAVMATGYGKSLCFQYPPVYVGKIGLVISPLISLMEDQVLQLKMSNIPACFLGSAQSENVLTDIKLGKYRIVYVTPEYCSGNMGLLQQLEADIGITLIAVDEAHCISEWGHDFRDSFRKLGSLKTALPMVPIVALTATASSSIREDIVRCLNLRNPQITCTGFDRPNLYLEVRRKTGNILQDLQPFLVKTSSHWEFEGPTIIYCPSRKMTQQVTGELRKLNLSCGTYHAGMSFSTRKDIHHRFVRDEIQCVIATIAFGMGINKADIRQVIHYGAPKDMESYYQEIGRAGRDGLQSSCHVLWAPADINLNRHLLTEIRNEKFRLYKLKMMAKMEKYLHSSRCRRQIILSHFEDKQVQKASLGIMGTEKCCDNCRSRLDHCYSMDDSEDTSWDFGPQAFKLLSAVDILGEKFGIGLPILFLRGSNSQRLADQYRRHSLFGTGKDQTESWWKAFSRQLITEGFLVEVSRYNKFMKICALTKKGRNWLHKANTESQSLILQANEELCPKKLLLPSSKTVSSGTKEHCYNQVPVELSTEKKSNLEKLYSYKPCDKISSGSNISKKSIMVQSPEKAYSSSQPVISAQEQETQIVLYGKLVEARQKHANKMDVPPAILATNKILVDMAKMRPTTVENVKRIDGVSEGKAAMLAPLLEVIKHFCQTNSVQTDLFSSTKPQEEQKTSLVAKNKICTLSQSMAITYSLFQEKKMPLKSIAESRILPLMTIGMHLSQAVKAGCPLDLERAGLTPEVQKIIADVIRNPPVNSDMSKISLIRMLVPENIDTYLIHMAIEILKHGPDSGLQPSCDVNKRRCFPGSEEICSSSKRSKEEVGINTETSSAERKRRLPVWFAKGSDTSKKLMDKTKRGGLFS
RecQ-like DNA helicase BLM, sequence (P54132 whole entry): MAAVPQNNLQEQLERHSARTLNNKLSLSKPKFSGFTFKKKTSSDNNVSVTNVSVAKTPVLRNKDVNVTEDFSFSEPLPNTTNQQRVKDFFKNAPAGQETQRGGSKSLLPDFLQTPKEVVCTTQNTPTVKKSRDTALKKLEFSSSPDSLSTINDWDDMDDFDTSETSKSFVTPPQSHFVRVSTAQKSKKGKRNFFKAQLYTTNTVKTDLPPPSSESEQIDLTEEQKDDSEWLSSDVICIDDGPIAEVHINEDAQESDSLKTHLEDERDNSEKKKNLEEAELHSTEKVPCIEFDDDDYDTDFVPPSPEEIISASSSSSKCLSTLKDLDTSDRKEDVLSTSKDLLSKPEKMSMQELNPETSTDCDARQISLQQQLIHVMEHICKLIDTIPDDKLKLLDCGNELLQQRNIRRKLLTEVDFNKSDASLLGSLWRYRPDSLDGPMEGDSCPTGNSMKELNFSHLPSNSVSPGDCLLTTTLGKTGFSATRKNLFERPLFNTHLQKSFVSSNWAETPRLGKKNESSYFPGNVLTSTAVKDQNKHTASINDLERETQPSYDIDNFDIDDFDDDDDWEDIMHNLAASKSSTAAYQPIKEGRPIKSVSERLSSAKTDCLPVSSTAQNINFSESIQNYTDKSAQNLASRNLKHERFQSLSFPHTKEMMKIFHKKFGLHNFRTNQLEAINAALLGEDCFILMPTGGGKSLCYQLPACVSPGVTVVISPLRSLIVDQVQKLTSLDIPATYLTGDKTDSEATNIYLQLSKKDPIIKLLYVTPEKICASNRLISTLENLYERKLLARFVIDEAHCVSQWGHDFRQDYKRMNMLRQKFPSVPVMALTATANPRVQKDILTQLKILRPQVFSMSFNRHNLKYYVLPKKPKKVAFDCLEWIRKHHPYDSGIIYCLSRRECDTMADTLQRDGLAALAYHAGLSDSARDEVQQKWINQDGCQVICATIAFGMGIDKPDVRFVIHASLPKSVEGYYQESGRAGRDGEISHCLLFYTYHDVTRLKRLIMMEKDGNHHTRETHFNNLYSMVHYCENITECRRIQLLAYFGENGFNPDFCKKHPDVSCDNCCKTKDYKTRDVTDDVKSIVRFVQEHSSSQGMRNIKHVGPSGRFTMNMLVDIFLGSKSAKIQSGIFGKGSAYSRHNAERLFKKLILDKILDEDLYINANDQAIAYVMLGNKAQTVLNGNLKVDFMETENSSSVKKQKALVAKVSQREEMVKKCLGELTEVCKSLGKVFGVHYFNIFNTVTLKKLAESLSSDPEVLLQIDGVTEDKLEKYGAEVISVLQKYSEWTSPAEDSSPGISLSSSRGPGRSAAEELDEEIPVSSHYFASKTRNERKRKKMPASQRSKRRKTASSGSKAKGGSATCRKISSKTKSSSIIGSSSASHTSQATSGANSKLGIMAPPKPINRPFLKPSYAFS

Compound | IC50 [1] [nM] | IC50 [2] [µM] | IC50 [3] [µM] | IC50 [4] [µM] | inhibition (Homo sapiens [5]) | inhibition [6] | IC50 [7] [µM] | IC50 [8] [µM] | inhibition (Homo sapiens [9]) | inhibition [10] | Activity [11]
CCC(=O)OCN1C(=O)C=CC1=O | – | 10.4 | 1.6 | > 200 | inactive | Active | – | – | – | – | –
O=C1/C(=C2\Nc3ccc(S(=O)(=O)O)cc3C2=O)Nc2ccc(S(=O)(=O)O)cc21 [INDIGOTINDISULFONATE] | – | 5 | 3.3 | > 200 | – | Active | 0.2 | > 200 | Active | – | –
CC(C)(CN1C(=O)C(Cl)=C(Cl)C1=O)CN1C(=O)C(Cl)=C(Cl)C1=O | 230 | 88.7 | 11.3 | – | inactive | – | – | – | – | inactive | –

The next lines start with results.

IC50 [1] [nM] | IC50 [2] [µM] | IC50 [3] [µM] | IC50 [4] [µM] | inhibition (Homo sapiens [5]) | inhibition [6] | IC50 [7] [µM] | IC50 [8] [µM] | inhibition (Homo sapiens [9]) | inhibition [10] | Compound | Activity [11]
2300 | – | – | – | – | – | – | – | – | – | COc1ccc2nc(O)c(-c3noc(-c4ccccc4)n3)cc2c1 | –
13000 | – | – | – | – | – | – | – | – | – | COc1ccc2nc(O)c(-c3noc(-c4ccc(F)cc4)n3)cc2c1 | –
– | 15.8 | 26.3 | – | – | – | 9.8 | 47.6 | – | inactive | Cc1ccc(NC(=O)CN2C(=O)N/C(=C/c3ccccc3OCc3cccc(C(=O)O)c3)C2=O)cc1 | inactive
